Reference: publication PMC11891075, “TRIM66-HP1γ remodels the chromatin through phase separation” (Biophysics Reports, 2025)
Values belong to the molecule of their own block, whether it stands above or below them. Residues, ends and D or L forms follow the SMILES beside them.

Tests used:
[1] = tested on: condensates formed by mEGFP-TRIM66 and mCherry-HP1γ in U2OS cells; experiment: Live-cell imaging of condensates before and after 1,6-hexanediol; type: cell-based; conditions: 10% 1,6-hexanediol for 5 min, 10 independent fields from one cell dish
Procedure: U2OS cells and HeLa cells were cultured in high-glucose DMEM supplemented with 10% fetal bovine serum and 1% penicillin-streptomycin at 37 °C in a humidified incubator containing 5% CO2. Following the manufacturer's instructions, cells were transfected with plasmid DNA using Lipofectamine 3000 (Thermo Fisher Scientific).
Genes encoding human TRIM66 or its constructs were cloned into the pmEGFP-C3 (Clontech) vector with an N-terminal mEGFP tag or the Flag vector with an N-terminal Flag tag. Genes encoding human HP1γ or HP1γ^L172A/W174A were cloned into the pcDNA3.1 vector with an N-terminal mCherry tag.
U2OS cells were cultured on 35-mm glass bottom dishes (Wuxi NEST Biotechnology Co., Ltd) coated with poly-D-lysine (Sigma-Aldrich). L-15 medium without phenol red (Thermo Fisher Scientific) was used during live-cell imaging to maintain a suitable environment for cell growth, and the temperature was kept at approximately 37 °C. Images were obtained with a Nikon Ti fluorescent inverted microscope with a 100× 1.4 NA objective; an XY Piezo Z stage (Applied Scientific Instrumentation); a spinning disk confocal unit (Yokogawa); and an electron multiplier CCD camera (Andor) controlled by IQ3 live-cell imaging software (Andor). Images collected with this system were 16-bit and consisted of 512 × 512 pixels, and the pixel size was 0.12 μm.

[2] = target: T1, HP1γ-CSD^W174A (Homo sapiens, UniProt Q13185, W174A); experiment: ITC, HP1γ-CSD W174A mutant; type: binding; conditions: 20 °C, 20 mmol/L Tris-HCl, 150 mmol/L NaCl, pH 7.5, Fig. 2F
T1 construct: HP1γ CSD (110–176aa) and TRIM66 PxVxL motif peptide(856–868aa), mixed at a molar ratio of 1:1.2; His6 (N); made in house
T1 sequence (Q13185 110-176 W174A): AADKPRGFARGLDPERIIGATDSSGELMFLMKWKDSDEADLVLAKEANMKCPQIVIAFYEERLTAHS
Procedure: (§1) HP1γ_CSD (residues 110–176) was amplified by PCR from the human brain cDNA library and cloned into the pET-28a(+) expression vector (Novagen), contained an N-terminal 6× His tag and a tobacco etch virus (TEV) protease cleavage site. All mutants of HP1 were generated using a MutantBEST kit (Takara) and confirmed by DNA sequencing. All the proteins were expressed in Escherichia coli BL21 (DE3) cells (Novagen) cultured in LB medium at 37 °C to OD600 = 0.8, then shifted to 16 °C and induced with 0.5 mmol/L isopropyl β-D-1-thiogakactopyranoside (IPTG) for 24 h. Bacterial pellets were resuspended in Buffer A (20 mmol/L Tris-HCl, 500 mmol/L NaCl, pH 7.5) and lysed by sonication on ice. Then, soluble proteins were purified with a Ni^2+-chelating column (Cytiva Life Sciences) and a Superdex 75 column (Cytiva Life Sciences). After being cleaved by TEV protease overnight at 4 °C to remove the 6× His tag, the purified protein was concentrated to ∼10 mg/mL in Buffer B (20 mmol/L Tris-HCl, 150 mmol/L NaCl, pH 7.5) and stored at –80 °C. […]
(§2) Isothermal titration calorimetry (ITC) assays were performed using a MicroCal PEAQ-ITC calorimeter (Cytiva Life Sciences), and all experiments were carried out at 20 °C. […] The concentrations of the proteins were determined spectrophotometrically. […]

[3] = target: T2, HP1γ-CSD^D131A (Homo sapiens, UniProt Q13185, D131A); experiment: ITC, HP1γ-CSD D131A mutant; type: binding; conditions: 20 °C, 20 mmol/L Tris-HCl, 150 mmol/L NaCl, pH 7.5, Fig. 2G
T2 construct: HP1γ CSD (110–176aa) and TRIM66 PxVxL motif peptide(856–868aa), mixed at a molar ratio of 1:1.2; His6 (N); made in house
T2 sequence (Q13185 110-176 D131A): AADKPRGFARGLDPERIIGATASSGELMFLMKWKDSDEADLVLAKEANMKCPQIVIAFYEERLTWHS
Procedure: as §1, §2

[4] = target: T3, HP1γ-CSD (WT) (Homo sapiens, UniProt Q13185); experiment: Isothermal titration calorimetry (ITC), HP1γ-CSD wild type; type: binding; conditions: 20 °C, 20 mmol/L Tris-HCl, 150 mmol/L NaCl, pH 7.5, Fig. 2F
T3 construct: HP1γ CSD (110–176aa) and TRIM66 PxVxL motif peptide(856–868aa), mixed at a molar ratio of 1:1.2; made in house
T3 sequence (Q13185 110-176): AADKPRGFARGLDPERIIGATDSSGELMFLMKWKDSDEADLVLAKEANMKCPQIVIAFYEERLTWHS
Procedure: as §1, §2

[5] = target: T4, HP1γ-CSD^R171A (Homo sapiens, UniProt Q13185, R171A); experiment: ITC, HP1γ-CSD R171A mutant; type: binding; conditions: 20 °C, 20 mmol/L Tris-HCl, 150 mmol/L NaCl, pH 7.5, Fig. 2G
T4 construct: HP1γ CSD (110–176aa) and TRIM66 PxVxL motif peptide(856–868aa), mixed at a molar ratio of 1:1.2; His6 (N); made in house
T4 sequence (Q13185 110-176 R171A): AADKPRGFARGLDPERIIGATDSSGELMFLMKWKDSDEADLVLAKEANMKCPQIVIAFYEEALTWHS
Procedure: as §1, §2

[6] = target: T5, HP1γ-CSD^L172A (Homo sapiens, UniProt Q13185, L172A); experiment: ITC, HP1γ-CSD L172A mutant; type: binding; conditions: 20 °C, 20 mmol/L Tris-HCl, 150 mmol/L NaCl, pH 7.5, Fig. 2F
T5 construct: HP1γ CSD (110–176aa) and TRIM66 PxVxL motif peptide(856–868aa), mixed at a molar ratio of 1:1.2; His6 (N); made in house
T5 sequence (Q13185 110-176 L172A): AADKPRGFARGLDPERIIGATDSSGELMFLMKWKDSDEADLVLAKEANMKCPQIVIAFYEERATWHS
Procedure: as §1, §2

[7] = target: T6, HP1γ-CSD^I165A (Homo sapiens, UniProt Q13185, I165A); experiment: ITC, HP1γ-CSD I165A mutant (monomeric); type: binding; conditions: 20 °C, 20 mmol/L Tris-HCl, 150 mmol/L NaCl, pH 7.5, Fig. 2F
T6 construct: HP1γ CSD (110–176aa) and TRIM66 PxVxL motif peptide(856–868aa), mixed at a molar ratio of 1:1.2; His6 (N); made in house
T6 sequence (Q13185 110-176 I165A): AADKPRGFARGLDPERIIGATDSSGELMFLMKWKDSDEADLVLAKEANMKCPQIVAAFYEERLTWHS
Procedure: as §1, §2

[8] = target: HP1γ chromo shadow domain (CSD), residues 110-176 (human) (UniProt Q13185); experiment: ITC; MicroCal PEAQ-ITC, 20 °C, Buffer B (20 mmol/L Tris-HCl, 150 mmol/L NaCl, pH 7.5); TRIM66 peptide titrated into HP1γ-CSD
HP1γ chromo shadow domain (CSD), residues 110-176 (human), sequence (Q13185 110-176): as the sequence (Q13185 110-176) above

[9] = tested on: HP1γ and nuclear extract (NE); experiment: GST pull-down assay; type: binding, human; conditions: glutathione-Sepharose, 20 mmol/L Tris, 150 mmol/L NaCl, 1 mmol/L DTT, pH 7.5, 6 h at 4 °C; SDS-PAGE and western blot
Procedure: The gene for human TRIM66 full-length (residues 1–1050) was purchased from Life Technologies. All the DNA fragments for the human TRIM66 (residues 820–909, 840–909) were amplified by PCR. The proteins were cloned into a modified pGEX4T-1vector with a GST tag and TEV protease cleavage site. The proteins were expressed in Escherichia coli BL21 (DE3) cells and induced with 0.5 mmol/L IPTG for 24 h at 16 °C. The protein was purified by GST column (Cytiva Life Sciences), followed by TEV protease cleavage and size-exclusion chromatography on a Hiload 16/60 Superdex 200 column (Cytiva Life Sciences).
Nuclear extracts (NEs) were prepared as described with slight modifications. HeLa cells (1 × 10^8 cells/mL) were suspended with 4 mL of Buffer A comprising 0.5 mmol/L EDTA, 2 mmol/L MgCl2, 0.1% (v/v) protease inhibitor (PI) (Nakalai Tesque, Japan), 2 mmol/L β-mercaptoethanol, 10 mmol/L Tris–HCl, pH 7.8, and centrifuged at 1500 g for 2 min at 4 °C. […] The concentrations of NEs were determined by DNA concentrations calculated from the absorbance at 260 nm.
The GST alone control, GST-tagged protein (TRIM66^820–909) was bound to glutathione-Sepharose beads (Cytiva Life Sciences) in a buffer of 20 mmol/L Tris, 200 mmol/L NaCl, and 1 mmol/L DTT at pH 7.5, and incubated at 4 °C for 4 h. […] The proteins captured by beads were eluted and analyzed by SDS-PAGE and western blot.

Molecule: OCCCCCCO [1,6-hexanediol]
effect on mEGFP-TRIM66 and mCherry-HP1γ condensates [1]: depolymerized and the fluorescence signal was evenly distributed in the entire nucleus

B1: GST-TRIM66^820-909: GST-tagged TRIM66 residues 820–909, which contains HP1γ-CSD binding motif (protein, UniProt O15016 820-909, looked up, fragment)
chain: NLISDSPQAMASLASDHPQAGPSLMSGHTQAVPSLATCPLQSIPPVSDMQPETGSSSSSGRTSGSLCPRDGADPSLENALCKMESEDSTR
modifications: GST tag
complex formation with HP1γ and NE (GST pull-down) [9]: can form stable complexes

The next lines start with the values.

KD [2]: No binding
Kd [3]: 1360 ± 109 nM
Kd [4]: 280 ± 20 nM
Kd [5]: 2050 ± 38 nM
KD [6]: No binding
KD [7]: No binding
Molecule: CC[C@H](C)[C@H](NC(=O)[C@H](CCCCN)NC(=O)[C@H](Cc1c[nH]cn1)NC(=O)[C@@H](N)CCC(=O)O)C(=O)N1CCC[C@H]1C(=O)N[C@@H](Cc1ccc(O)cc1)C(=O)N[C@H](C(=O)N[C@@H](CCCNC(=N)N)C(=O)N[C@@H](CC(C)C)C(=O)N[C@@H](CCC(=O)O)C(=O)N[C@@H](CCCNC(=N)N)C(=O)N[C@@H](CC(C)C)C(=O)N[C@@H](CCCCN)C(=O)O)C(C)C [TRIM66^856-868] (H-EHKIPYVRLERLK-OH)

Kd [8]: 280 nM
stoichiometry N (HP1γ-CSD per TRIM66 peptide (2:1)) [8]: 2
Molecule: TRIM66 PxVxL motif peptide (residues 856-868)
